# Results published in US20250302929A1, “TUMOR NEOANTIGENIC PEPTIDES” (INSTITUT CURIE, priority 2021, published 2025).
# Entries after “also recorded” stand apart in the source; their conditions may differ.
# Columns and labels:
# [1] = system: CD8+ T cells from HLA-A2+ healthy donors; experiment: Priming of naive CTLs, in vitro immunogenicity assay, tetramer staining; format: cell-based, human; conditions: for specific CD8+ T expansions (immunogenicity): total of 6 donors, FIG. 11A; for expansion of specific CD8+ T cells (tetramer positive): one donor, versus co-culture without peptides
# Experimental: Priming of naïve CTLs. PBMCs were obtained by Ficoll gradient separation from HLA-A2+ healthy blood donors. CD14+, CD4+ and CD8+ cells were purified by positive selection using magnetic beads (Miltenyi Biotec). While CD4+ and CD8+ T cells were cryopreserved until the experiment day, CD14+ fraction was cultured in the presence of IL-4 (50 ng/ml) and GM-CSF (10 ng/mL) at 10^6 cells/mL during 5 days to obtain moDCs. After this period of time, the moDCs were maturated with LPS and incubated with synthetic ER-derived peptides at a final concentration of 1 μg/mL for 2 hours. Finally, peptide-loaded moDCs were co-cultured with autologous CD4+ and CD8+ T cells in culture medium supplemented with IL-2 (10U/ml) and IL-7 (100 ng/ml). The ER-derived peptide stimulation of specific CD8+ CTL populations was assessed by MHC-I tetramer staining by flow cytometry using a combination of two-color tetramer for each peptide.
# (§1) Tetramer Staining. Cells were resuspended in PBS, stained with Live/Dead Aqua-405 nm (ThermoFisher) during 20 minutes at 4° C. and washed once. After that, cells were resuspended in PBS-1% BSA containing the mix of SA-coupled tetramers and incubated in the dark at room temperature during 20 minutes. Without further washing, surface antibodies were added in PBS-1% BSA and cells were incubated 20 minutes in the dark at 4° C. Surface antibodies were a combination of anti-CD3-BV650+ anti-CD8-PECy7 in combination with anti-CCR7-AF700+ anti-CD45RA-BUV395 when required. Finally, cells were washed twice and resuspended in FACS buffer for flow cytometry analysis.
# The following step after binding validation to HLA-A2 allele, was to test the immunogenicity of predicted peptides. Priming assays were thus performed to test the ability of identified peptides to expand specific cytotoxic T cells. PBMCs from HLA-A2+ healthy donors were used to generate monocyte derived-DCs (moDCs). After loading the moDCs with a mix of synthetic peptides, autologous co-culture was performed with CD4+ and CD8+ T cells. Finally, the expansion of specific CD8+ T cells was analysed by flow cytometry using two-colours tetramer staining. As a control of specific expansion, the co-culture was performed in the absence of peptides.
# [2] = system: CD8+ T cells from tumor, juxta tumor, lymph nodes and blood of LUAD patients; experiment: Tetramer staining of TILs and CD8+ T cells from LUAD patient samples; format: cell-based, human; conditions: TILs from LUAD patients expanded with peptide mix + IL-2 or IL-2 only
# Experimental: In experiments addressed to evaluate the presence of specific CD8+ T cells, the tetramerization step was performed by incubating the monomers with different combinations of fluorescent streptavidin (PE, APC, PE-Cy5, PE-CF594, BV421, BV711 and FITC).
# as §1, with “analysis. […]” for “analysis.”
# Tumor infiltrating lymphocytes (TILs) cultures. […] Cells were feed/split as necessary during 15-20 days and cryopreserve or analyzed for tetramer staining.
# In a first set of experiments tumor infiltrating lymphocytes (TILs) expanded with a mix of TE-derived peptides and Il-2, or only with Il-2, were analyzed by tetramer staining. […]
# In a second cohort of 5 primary, untreated, LUAD tumor, juxta-tumor, tumor-draining lymph node and blood samples from LUAD cancer HLA-A2+ patients were analyzed. […]
Sequence,specific CD8+ T expansions (immunogenicity) [1],expansion of specific CD8+ T cells (tetramer positive) [1],tetramer positive CD8+ T cells in TILs [2]
ILHSLVTGV,specific CD8+ T expansions,,
LLGETKVYV,specific CD8+ T expansions,expand specific CD8+ T cells,
LLTSWHLYL,specific CD8+ T expansions,,
YLWTTFFPL,specific CD8+ T expansions,expand specific CD8+ T cells,
GLLNISHTA,specific CD8+ T expansions,,
SLMQSGSPV,specific CD8+ T expansions,,
YLPYFLKSL,specific CD8+ T expansions,,
ILSGYGPCV,specific CD8+ T expansions,,
LLDRFGYHV,specific CD8+ T expansions,,
YLQGLPLPL,specific CD8+ T expansions,,
FLGTRVTRV,specific CD8+ T expansions,,
VLMWTMAHL,specific CD8+ T expansions,,
MLVTWELAL,specific CD8+ T expansions,,
LLHLESFLV,specific CD8+ T expansions,,
MLMKTVWQA,specific CD8+ T expansions,,
FLIVAEILI,,expand specific CD8+ T cells,
GLPSHVELA,specific CD8+ T expansions; also recorded: immunogenic,,TILs recognizing
AMDGKELSL,specific CD8+ T expansions,,
ILTASITSI,specific CD8+ T expansions,,
VLLTNTIWL,specific CD8+ T expansions,,
RLADHLSFC,specific CD8+ T expansions; also recorded: immunogenic,expand specific CD8+ T cells,
RQAPGFHHA,specific CD8+ T expansions,,
RLLHLESFL,specific CD8+ T expansions,expand specific CD8+ T cells,
AILPKANTV,specific CD8+ T expansions,expand specific CD8+ T cells,
